US6855693B2, “Peptides for activation and inhibition of δPKC” (The Board of Trustees of the Leland Stanford Junior …, priority 2001, dated 2005)
No end group written: not given here.

How the values were obtained:
εPKC = target: T1, εPKC (Rattus norvegicus, UniProt P09216); experiment: Translocation of εPKC in primary cardiac myocytes (Western blot); assay type: cell-based; settings: data not shown
T1 construct: blots probed with anti-δPKC, anti-αPKC and anti-εPKC antibodies; endogenous in cells; host or cells: primary neonatal rat cardiac myocytes
T1 sequence (P09216 1-737): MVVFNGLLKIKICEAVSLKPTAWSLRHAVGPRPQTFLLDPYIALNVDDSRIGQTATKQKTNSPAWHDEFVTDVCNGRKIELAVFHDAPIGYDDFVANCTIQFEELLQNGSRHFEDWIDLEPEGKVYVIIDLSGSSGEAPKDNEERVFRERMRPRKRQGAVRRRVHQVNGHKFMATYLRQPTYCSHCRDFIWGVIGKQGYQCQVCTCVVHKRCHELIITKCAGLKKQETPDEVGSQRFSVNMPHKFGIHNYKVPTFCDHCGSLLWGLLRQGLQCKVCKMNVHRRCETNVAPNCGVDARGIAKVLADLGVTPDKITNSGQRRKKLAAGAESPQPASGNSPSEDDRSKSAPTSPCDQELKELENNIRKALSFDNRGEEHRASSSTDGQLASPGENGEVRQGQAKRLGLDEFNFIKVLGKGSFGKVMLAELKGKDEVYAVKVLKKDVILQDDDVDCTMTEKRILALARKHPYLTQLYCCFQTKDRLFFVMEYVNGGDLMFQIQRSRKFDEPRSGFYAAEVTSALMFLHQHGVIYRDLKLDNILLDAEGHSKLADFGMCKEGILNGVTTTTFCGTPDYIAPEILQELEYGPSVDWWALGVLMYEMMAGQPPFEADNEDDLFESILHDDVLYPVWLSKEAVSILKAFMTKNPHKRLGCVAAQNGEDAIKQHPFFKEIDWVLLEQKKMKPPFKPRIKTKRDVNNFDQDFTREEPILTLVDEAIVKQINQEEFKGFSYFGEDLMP
Description: As described in Example 1, the δV1-1 and ψδRACK peptides were analyzed to determine whether the peptides had activity, and if so, whether the activity was as an agonist or an antagonist of δPKC. As will be shown, δV1-1, δV1-2 and δV1-5 are δPKC antagonists and ψδRACK is a δPKC agonist. In these studies, the δV1-1 and ψδRACK peptides were modified with a carrier peptide by cross-linking via an N-terminal Cys-Cys bond to the Drosophila Antennapedia homeodomain (SEQ ID NO:8; Théodore, L., et al.; Johnson, J. A. et al., 1996b). […] Translocation of δPKC isozyme was assessed by Western blot analysis cystosolic and particulate fractions of treated cells. Subcellular localization of δPKC isozyme was assessed by immunofluorescence by probing the blot with […], and anti-εPKC antibodies. Translocation was expressed as the amount of isozyme in the particulate fraction over the amount of isozyme in non-treated cells. […]
Translocation of δPKC isozyme was assessed by using δPKC isozyme-specific antibodies in Western blot analysis (Santa Cruz Biotechnology). […] Subcellular localization of dPKC isozymes was assessed by chemiluminescence of blots probed with anti-δPKC, anti-αPKC and anti-εPKC antibodies. […] Changes in translocation of δPKC isozyme were also determined by immunofluoresence study of treated and fixed cells (Gray et al., 1997). […]

[1] = tested on: isolated adult rat cardiac myocytes; experiment: Simulated ischemia in isolated cardiac myocytes, cell damage by osmotic fragility test (trypan blue uptake); assay type: cell-based
Description: In another study, the δPKC activator peptide, ψδRACK, and the δPKC inhibitor peptide, δV1-1 were administered to isolated rat cardiac myocytes to determine the role of δPKC in protection from ischemia. As described in Example 2, the Antennapedia carrier-peptide conjugate of δV1-1 and/or ψδRACK was introduced into isolated adult rat cardiac myocytes ten minutes prior to prolonged ischemia. Cell damage was assessed using an osmotic fragility test by measuring uptake of trypan blue.
Adult male Wistar rat cardiomyocytes were prepared on a Langendorff apparatus (van der Heide, R. S. et al.) by collagenase treatment (Armstrong, S. et al.). The cells were treated with δV1-1 at concentrations of 10 nM, 100 nM, 500 nM, and 1 μM in the presence or absence of 1 μM ψδRACK. βPKC-selective activator was used as a control.
For […] ischemia, adult myocytes treated in microcentrifuge tubes with δV1-1 and/or ψδRACK peptides conjugated to the carrier were washed twice with degassed glucose-free incubation buffer and pelleted. On top of a minimal amount of buffer, the cell pellets were overlaid with either a micro-balloon (Sig Manufacturing, Montezuma, Iowa) or with degassed buffer saturated with nitrogen, and sealed with an airtight top. Tubes were then incubated at 37 C for either 180 minutes or 90 minutes.
Cell damage was assessed by an osmotic fragility test by measuring the uptake of trypan blue added in a hypotonic (85 mosM) solution. Similar results were also obtained by using a live-dead kit (Molecular Probes) or measuring the release of […] to the medium using a kit (Sigma) as previously described (Chen, et al., 1999; Gray et al., 1997; Mackay et al., 1999).

Sequence | translocation of εPKC (εPKC) | protection from ischemia-induced cell damage ([1]; 10 nM, 100 nM, 500 nM, 1 μM, given 10 minutes prior to 180 minute ischemia) | effect of co-treatment on the ψδRACK-induced increase in cell damage ([1]; 90 minute ischemia, co-treatment with ψδRACK) | cardiac myocyte damage after ischemic insult ([1]; 1 μM ψδRACK, 180 minute ischemia) | effect of co-incubation on the δV1-1 protection from ischemia-induced damage ([1]; co-incubation with δV1-1, 180 minute ischemia, ψδRACK 1 μM) | ψδRACK-induced increase in cell damage ([1]; ischemia shortened to 90 minutes)
SFNSYELGSL (also: conjugated to Antennapedia or Tat carrier; listed as Rattus norvegicus) [δV1-1, tested conjugated to Antennapedia or Tat carrier] | did not inhibit | concentration-dependent level of protection | reversed |  |  | 
MRAAEDPM (also: conjugated to Antennapedia or Tat carrier; listed as Rattus norvegicus) [ψδRACK, tested conjugated to Antennapedia or Tat carrier] | without affecting |  |  | slight increase | prevented | became significant
